Experimental data from patent US20140135310A1, “SULPHONAMIDE DERIVATIVES OF ALICYCLIC AMINES FOR THE TREATMENT OF CENTRAL NERVOUS SYSTEM DISEASES” (Adamed Sp. z o.o., priority 2011, published 2014).
pKi: −log10 of the molar value.

Legend:
[1] = tested on: α1 adrenergic receptors (rat cerebral cortex); test: Radioligand binding assay, adrenergic α1 receptors; settings: test compound 1×10^−6 M
Method in brief: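 Values derive from radioligand displacement, with non-specific binding defined by excess cold ligand and detection by scintillation. Hill-fit IC50s were converted to Ki via Cheng-Prusoff using Scatchard-derived Kd; percent inhibition of control specific binding also reported.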

5-HT2A receptor = molecular target: T1, 5-HT2A receptor (Homo sapiens, UniProt P28223); test: Radioligand binding assay, serotoninergic 5-HT2A receptors; settings: for inhibition at 1 µM / 5-HT2A [%]: binding assay result in %, Table 5a
T1 construct: purchased PerkinElmer
T1 sequence (P28223 whole entry): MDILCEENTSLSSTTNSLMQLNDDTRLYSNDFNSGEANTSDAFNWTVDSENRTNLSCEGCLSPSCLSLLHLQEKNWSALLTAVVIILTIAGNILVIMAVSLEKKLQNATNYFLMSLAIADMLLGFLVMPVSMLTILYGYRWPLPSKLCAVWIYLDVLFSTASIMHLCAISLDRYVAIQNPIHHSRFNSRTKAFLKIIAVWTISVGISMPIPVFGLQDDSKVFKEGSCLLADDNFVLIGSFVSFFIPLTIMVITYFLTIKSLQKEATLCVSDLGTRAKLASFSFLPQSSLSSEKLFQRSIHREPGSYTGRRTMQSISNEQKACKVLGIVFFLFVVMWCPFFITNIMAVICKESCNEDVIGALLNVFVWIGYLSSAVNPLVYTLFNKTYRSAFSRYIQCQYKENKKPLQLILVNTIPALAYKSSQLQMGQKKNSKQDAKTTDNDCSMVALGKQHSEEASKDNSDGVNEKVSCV
Method in brief: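 Competition curves from scintillation-counted specific binding (total minus binding with excess unlabelled ligand) were Hill-fitted to give IC50, converted to Ki via Cheng-Prusoff using Scatchard-derived Kd.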

σ receptors = test: Radioligand binding assay, σ receptors; settings: rat cerebral cortex, [3H]DTG 8 nM
Description: (§1) The specific ligand binding to the receptors is defined as the difference between the total binding and the non-specific binding determined in the presence of the excess of unlabelled ligand.
The results are expressed as a percent of control specific binding ((measured specific binding/control specific binding)×100) and as a percent inhibition of control specific binding (100−((measured specific binding/control specific binding)×100)) obtained in the presence of the test compounds. The specific ligand binding to the receptors is defined as the difference between the total binding and the nonspecific binding determined in the presence of an excess of unlabelled ligand. Scintillation counting was the method of detection of ligand binding. The IC50 values (concentration causing a half-maximal inhibition of control specific binding) were determined by non-linear regression analysis of the competition curves generated with mean replicate values using Hill equation curve fitting (Y=D+[(A−D)/(1+(C/C50)nH)], where Y=specific binding, D=minimum specific binding, A=maximum specific binding, C=compound concentration, C50=IC50, and nH=slope factor). […] The inhibition constants (Ki) were calculated using the Cheng Prusoff equation (Ki=IC50/(1+(L/KD)), where L=concentration of radioligand in the assay, and KD=affinity of the radioligand for the receptor). A scatchard plot was used to determine the Kd.

receptors D4.4 = molecular target: T2, receptors D4.4 (Homo sapiens, UniProt P21917); test: Radioligand binding assay, dopaminergic D4 (D4.4) receptors; settings: test compound 1×10^−6 M
T2 sequence (P21917 1-419): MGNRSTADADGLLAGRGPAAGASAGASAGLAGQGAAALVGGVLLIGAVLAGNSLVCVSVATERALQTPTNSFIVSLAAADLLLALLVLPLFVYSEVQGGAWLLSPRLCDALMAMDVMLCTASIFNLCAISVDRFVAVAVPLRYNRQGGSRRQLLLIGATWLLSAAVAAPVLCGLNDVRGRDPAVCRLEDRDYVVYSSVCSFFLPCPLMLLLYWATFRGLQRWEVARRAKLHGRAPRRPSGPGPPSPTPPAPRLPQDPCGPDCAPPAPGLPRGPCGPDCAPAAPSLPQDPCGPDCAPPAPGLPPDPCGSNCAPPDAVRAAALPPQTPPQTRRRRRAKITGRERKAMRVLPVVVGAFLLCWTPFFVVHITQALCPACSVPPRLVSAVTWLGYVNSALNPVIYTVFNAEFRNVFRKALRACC
Description: as §1
(§2) The results are expressed as a percent of control specific binding ((measured specific binding/control specific binding)×100) and as a percent inhibition of control specific binding (100−((measured specific binding/control specific binding)×100)) obtained in the presence of the test compounds. The specific ligand binding to the receptors is defined as the difference between the total binding and the nonspecific binding determined in the presence of an excess of unlabelled ligand. Scintillation counting was the method of detection of ligand binding. The IC50 values (concentration causing a half-maximal inhibition of control specific binding) were determined by non-linear regression analysis of the competition curves generated with mean replicate values using Hill equation curve fitting (Y=D+[(A−D)/(1+(C/C50)nH)], where Y=specific binding, D=minimum specific binding, A=maximum specific binding, C=compound concentration, C50=IC50, and nH=slope factor). This analysis was performed using a software developed at Cerep (Hill software) and validated by comparison with data generated by the commercial software SigmaPlot® 4.0 for Windows® (© 1997 by SPSS Inc.). The inhibition constants (Ki) were calculated using the Cheng Prusoff equation (Ki=IC50/(1+(L/KD)), where L=concentration of radioligand in the assay, and KD=affinity of the radioligand for the receptor). A scatchard plot was used to determine the Kd.
Experimental conditions for tests are given in Table 1, the results of tests for representative compounds are given in Tables 2a and 2b (receptors D2 and D3) and in Table 3 (receptors D4).

M3 muscarinic receptors = molecular target: T3, M3 muscarinic receptors (Homo sapiens, UniProt P20309); test: Radioligand binding assay, muscarinic M3 receptors; settings: test compound 1×10^−6 M
T3 construct: expressed in transfected cells; host or cells: CHO cells
T3 sequence (P20309 whole entry): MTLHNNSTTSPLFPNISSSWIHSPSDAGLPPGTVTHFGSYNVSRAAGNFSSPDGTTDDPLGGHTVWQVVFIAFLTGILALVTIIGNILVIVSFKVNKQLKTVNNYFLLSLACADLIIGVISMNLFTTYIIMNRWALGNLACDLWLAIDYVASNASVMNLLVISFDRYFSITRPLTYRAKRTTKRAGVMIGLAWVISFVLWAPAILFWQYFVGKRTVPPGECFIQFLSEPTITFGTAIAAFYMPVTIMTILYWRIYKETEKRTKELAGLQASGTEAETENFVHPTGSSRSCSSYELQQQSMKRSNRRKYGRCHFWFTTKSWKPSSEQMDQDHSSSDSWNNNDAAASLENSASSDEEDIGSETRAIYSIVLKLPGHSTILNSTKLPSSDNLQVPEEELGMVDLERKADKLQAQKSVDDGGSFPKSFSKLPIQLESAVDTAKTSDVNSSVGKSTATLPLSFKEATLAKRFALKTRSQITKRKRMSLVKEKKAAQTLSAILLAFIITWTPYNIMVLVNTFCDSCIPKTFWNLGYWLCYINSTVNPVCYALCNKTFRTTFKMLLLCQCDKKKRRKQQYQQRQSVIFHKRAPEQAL
Description: as §1, §2
Experimental conditions for tests are given in Table 10, and results of tests for representative compounds are given in Table 11.

[2] = molecular target: dopaminergic receptors D3 (Homo sapiens, UniProt P35462); test: Radioligand binding assay, dopaminergic D3 receptors; settings: test compound 1×10^−6 M
Sequence of dopaminergic receptors D3 (P35462 whole entry): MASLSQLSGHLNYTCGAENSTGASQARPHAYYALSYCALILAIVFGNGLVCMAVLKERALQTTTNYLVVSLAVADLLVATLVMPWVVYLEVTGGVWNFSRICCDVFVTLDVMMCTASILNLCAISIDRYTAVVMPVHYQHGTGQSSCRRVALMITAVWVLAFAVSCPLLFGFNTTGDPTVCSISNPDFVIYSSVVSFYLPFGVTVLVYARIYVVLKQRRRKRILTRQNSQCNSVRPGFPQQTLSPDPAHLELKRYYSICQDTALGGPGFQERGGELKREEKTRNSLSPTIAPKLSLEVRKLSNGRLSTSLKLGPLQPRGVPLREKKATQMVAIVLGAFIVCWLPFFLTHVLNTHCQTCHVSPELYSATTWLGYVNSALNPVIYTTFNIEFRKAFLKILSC
Method in brief: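 Scintillation read-out. Specific = total − nonspecific (excess cold ligand). Data as % of control specific binding / % inhibition; IC50 by Hill fit; Ki = IC50/(1+L/KD), KD from Scatchard plot.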

5-HT6 receptor = molecular target: T4, 5-HT6 receptor (Homo sapiens, UniProt P50406); test: Radioligand binding assay, serotoninergic 5-HT6 receptors; settings: for inhibition at 1 µM / 5-HT6 [%]: binding assay result in %, Table 5a; for pKi: read-out: Inhibition constants Ki, 5-HT6;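 for 5-HT6 [%]: test compound at 1 µM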
T4 construct: purchased PerkinElmer
T4 sequence (P50406 whole entry): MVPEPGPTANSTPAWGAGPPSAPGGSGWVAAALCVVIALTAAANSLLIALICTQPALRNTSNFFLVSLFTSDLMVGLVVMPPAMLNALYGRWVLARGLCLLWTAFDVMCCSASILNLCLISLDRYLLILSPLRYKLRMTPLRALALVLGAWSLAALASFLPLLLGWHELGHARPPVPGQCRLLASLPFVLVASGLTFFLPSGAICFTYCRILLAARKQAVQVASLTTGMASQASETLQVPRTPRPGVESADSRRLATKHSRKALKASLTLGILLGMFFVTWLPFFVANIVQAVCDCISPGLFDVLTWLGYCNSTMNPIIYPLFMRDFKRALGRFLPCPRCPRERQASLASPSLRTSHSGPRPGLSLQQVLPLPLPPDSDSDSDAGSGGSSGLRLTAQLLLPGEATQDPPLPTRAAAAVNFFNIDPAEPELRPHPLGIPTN
Method in brief: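 Values are Ki from Cheng–Prusoff, taking IC50 from Hill nonlinear regression of competition curves and KD from a Scatchard plot. Specific binding was total minus binding with excess unlabelled ligand. Radioligand displacement was detected by scintillation counting, and data were also reported as percent of control specific binding.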

Row | SMILES | α1 [%] [1] | inhibition at 1 µM (5-HT2A receptor) | σ [%] (σ receptors) | inhibition at 1 µM (receptors D4.4) | inhibition at 1 µM (M3 muscarinic receptors) | inhibition at 1 µM [2] | inhibition at 1 µM (5-HT6 receptor) | pKi (5-HT6 receptor) | 5-HT2A [%] (5-HT2A receptor) | D4.4 [%] (receptors D4.4) | M3 [%] (M3 muscarinic receptors) | D3 [%] [2] | 5-HT6 [%] (5-HT6 receptor) | pKi (5-HT2A receptor; read-out: Inhibition constants Ki, 5-HT2A)
1 | Cc1cccc(S(=O)(=O)NC2CCN(CCCc3c[nH]c4ccc(F)cc34)C2)c1 (stereo not drawn) [Compound 78, N-[1-[3-(5-Fluoro-1H-indol-3-yl)propyl]pyrrolidin-3-yl]-3-methyl-benzenesulphonamide] | 39% | 95% | 70% | 79% | 5% | 98% | 94% | 7.38 | – | – | – | – | – | –
2 | O=S(=O)(NC1CCN(CCCc2c[nH]c3ccc(F)cc23)C1)c1cccc2ccccc12 (stereo not drawn) [Compound 79, N-[1-[3-(5-Fluoro-1H-indol-3-yl)propyl]pyrrolidin-3-yl]naphthalene-1-sulphonamide] | 37% | 99% | 67% | 92% | -3% | 97% | 86% | – | – | – | – | – | – | –
3 | O=S(=O)(NC1CCN(CCCc2c[nH]c3ccc(Cl)cc23)C1)c1cccc(F)c1 (stereo not drawn) [Compound 82, N-[1-[3-(5-Chloro-1H-indol-3-yl)propyl]pyrrolidin-3-yl]-3-fluoro-benzene-sulphonamide] | 43% | 91% | 63% | 94% | 9% | 94% | 93% | 7.43 | – | – | – | – | – | –
4 | O=S(=O)(NC1CCN(CCCc2c[nH]c3ccc(Cl)cc23)C1)c1cccc(Cl)c1 (stereo not drawn) [Compound 84, 3-Chloro-N-[1-[3-(5-chloro-1H-indol-3-yl)propyl]pyrrolidin-3-yl]benzenesulphonamide] | 51% | 78% | 59% | 94% | 3% | 99% | 96% | 7.74 | – | – | – | – | – | –
5 | O=S(=O)(NC1CN(CCOc2cccc3c2OCCO3)C1)c1cccc(F)c1 [Compound 89, N-[1-[2-(2,3-Dihydro-1,4-benzodioxan-8-yloxy)ethyl]azetidin-3-yl]-3-fluoro-benzenesulphonamide] | 45% | – | 24% | – | – | – | – | – | 74% | 22% | −6% | 23% | 19% | –
6 | CC1(C)Cc2cccc(OCCN3CCC(NS(=O)(=O)c4cccc(O)c4)CC3)c2O1 [Compound 109, N-[1-[2-[(2,2-Dimethyl-3H-benzofuran-7-yl)oxy]ethyl]-4-piperidine]-3-hydroxy-benzenesulphonamide] | 44% | – | 39% | – | – | – | – | – | 95% | 69% | 3% | 86% | 67% | –
7 | CC1(C)Cc2cccc(OCCN3CCC(NS(=O)(=O)c4ccc5ccccc5c4)CC3)c2O1 [Compound 110, N-[1-[2-[(2,2-Dimethyl-3H-benzofuran-7-yl)oxy]ethyl]-4-piperidine]naphthalene-2-sulphonamide] | 45% | – | 56% | – | – | – | – | – | 91% | 42% | −7% | 73% | −60% | –
8 | O=S(=O)(NC1CCN(CCOc2cccc3ccccc23)C1)c1cccc(O)c1 (stereo not drawn) [Compound 115, 3-Hydroksy-N-[1-[2-(1-naphthyloxy)ethyl]pyrrolidin-3-yl]benzenesulphonamide] | 24% | – | 69% | – | – | – | – | – | 99% | 55% | 13% | 97% | 88% | –
9 | O=S(=O)(NCC1CN(CCCc2noc3cc(F)ccc23)C1)c1ccc(-c2ccccc2)cc1 [Compound 135, N-[[1-[3-(6-Fluoro-1,2-benzoxazol-3-yl)propyl]azetidin-3-yl]methyl]-4-phenyl-benzenesulphonamide] | 88% | 99% | 94% | 60% | 19% | 94% | 92% | – | – | – | – | – | – | –
10 | O=S(=O)(NCC1CN(CCOc2cccc3c2OCCO3)C1)c1cc2ccccc2o1 [Compound 186, N-[[1-[2-(2,3-Dihydro-1,4-benzodioxin-5-yloxy)ethyl]azetidin-3-yl]methyl]-benzofuran-2-sulphonamide] | 80% | 87% | 84% | 55% | -9% | 78% | 32% | – | – | – | – | – | – | –
11 | Cc1c(S(=O)(=O)N[C@@H]2CCN(CCCc3noc4cc(F)ccc34)C2)sc2ccc(Cl)cc12 [Compound 204, 5-Chloro-N-[(3R)-1-[3-(6-fluoro-1,2-benzoxazol-3-yl)propyl]pyrrolidin-3-yl]-3-methyl-benzothiophene-2-sulphonamide] | 76% | – | 90% | 71% | 17% | 96% | 97% | 8.16 | – | – | – | – | – | 9.10
